In patent US10626081B2, “Farnesoid X receptor agonists and uses thereof” (Metacrine, Inc., priority 2015, dated 2020):

Key:
[1] = target: T1, FXR (Homo sapiens, UniProt Q96RI1); experiment: In Vitro FXR Assay (PGL3): luciferase reporter in transfected CV-1 cells; format: cell-based; settings: CV-1 cells transfected with hFXR, hRXR, PGL3-ECRE*6-luc; 18 h incubation; luminescence
T1 construct: expressed in transfected cells; host or cells: CV-1 cells
T1 sequence (Q96RI1 1-486): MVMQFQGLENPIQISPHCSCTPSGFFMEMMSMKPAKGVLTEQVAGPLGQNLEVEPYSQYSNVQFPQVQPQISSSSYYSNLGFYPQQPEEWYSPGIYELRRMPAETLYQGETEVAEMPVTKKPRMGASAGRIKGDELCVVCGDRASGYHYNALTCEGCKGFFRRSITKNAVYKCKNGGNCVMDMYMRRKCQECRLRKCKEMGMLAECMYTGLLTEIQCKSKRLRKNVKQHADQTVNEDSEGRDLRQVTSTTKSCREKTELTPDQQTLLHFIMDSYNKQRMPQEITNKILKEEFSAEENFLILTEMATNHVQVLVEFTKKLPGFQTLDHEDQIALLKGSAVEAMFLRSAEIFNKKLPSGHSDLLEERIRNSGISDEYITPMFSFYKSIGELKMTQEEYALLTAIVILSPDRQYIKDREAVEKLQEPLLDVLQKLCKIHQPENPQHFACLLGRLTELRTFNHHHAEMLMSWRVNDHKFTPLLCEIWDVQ
T1 sequence (P19793 1-462 partner): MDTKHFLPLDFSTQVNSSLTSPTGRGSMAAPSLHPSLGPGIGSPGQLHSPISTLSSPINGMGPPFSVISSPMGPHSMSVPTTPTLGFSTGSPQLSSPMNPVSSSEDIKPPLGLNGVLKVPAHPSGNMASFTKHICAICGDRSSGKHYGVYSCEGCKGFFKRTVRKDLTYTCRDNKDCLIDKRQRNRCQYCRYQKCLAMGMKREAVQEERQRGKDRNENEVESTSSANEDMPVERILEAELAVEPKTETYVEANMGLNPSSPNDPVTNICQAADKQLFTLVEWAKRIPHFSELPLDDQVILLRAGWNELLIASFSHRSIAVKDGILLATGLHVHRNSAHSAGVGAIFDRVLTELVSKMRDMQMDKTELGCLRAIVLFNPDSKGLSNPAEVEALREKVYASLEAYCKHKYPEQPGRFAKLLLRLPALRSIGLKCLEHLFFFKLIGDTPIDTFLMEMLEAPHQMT
Outline: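 CV-1 cells in charcoal-stripped FBS were transiently co-transfected with full-length human FXR, RXR, an ECRE×6-luciferase reporter, β-gal and YFP plasmids. Transfected cells were reseeded onto half-log compound dilutions and incubated 18 h. Luciferase luminescence was read after lysis, and EC50 was determined.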

[2] = target: T1, FXR; experiment: In Vitro FXR Assay (TK): TK-ECRE-luc reporter in transfected CV-1 cells; format: cell-based; settings: CV-1 cells transfected with hFXR, hRXR, 18 h incubation, luminescence
Outline: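 CV-1 cells in charcoal-stripped FBS medium were transiently cotransfected with hFXR, hRXR, TK-ECRE-luc and pCMX-YFP plasmids. After 18 h, compounds serially diluted in DMSO were added for 18 h at 37 °C, 5% CO2, then cells were lysed and luminescence read.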

| Compound | Cmpd/Fex (ratio of the EC50 for the test compound relative to the EC50 of the Fexaramine control) [1] | EC50 [2] [nM] |
| --- | --- | --- |
| CCCC(=O)N(Cc1ccc(-c2ccc(N(C)C)cc2)cc1)c1cccc(/C=C/C(=O)OC)c1 [compound 2, (E)-Methyl 3-(3-(N-((4′-(dimethylamino)-[1,1′-biphenyl]-4-yl)methyl)butyramido)phenyl)acrylate] | ++ (‘++’ means Cmpd/Fex > 10 & < 100) | 1000 to 10000 |
| COC(=O)/C=C/c1cccc(N(Cc2ccc(-c3ccc(N(C)C)c(C)c3)cc2)C(=O)C2CCCCC2)c1 [compound 20, (E)-Methyl 3-(3-(N-((4′-(dimethylamino)-3′-methyl-[1,1′-biphenyl]-4-yl)methyl)cyclohexanecarboxamido)phenyl)acrylate] | +++ (‘+++’ means Cmpd/Fex < 10) | ≤ 1000 |
| CCOC(=O)/C=C/c1cccc(N(Cc2ccc(-c3ccc(N(C)C)cc3)cc2)C(=O)C2CCCCC2)c1 [compound 84, (E)-Ethyl 3-(3-(N-((4′-(dimethylamino)-[1,1′-biphenyl]-4-yl)methyl)cyclohexanecarboxamido)phenyl) acrylate] | +++ (‘+++’ means Cmpd/Fex < 10) | ≤ 1000 |
| COC(=O)/C=C/c1cccc(N(Cc2ccc(-c3ccc4[nH]ncc4c3)cc2)C(=O)C2CCCCC2)c1 [compound 49, (E)-Methyl 3-(3-(N-(4-(1H-indazol-5-yl)benzyl)cyclohexanecarboxamido)phenyl) acrylate] | + (‘+’ means Cmpd/Fex > 100) | 1000 to 10000 |
| COC(=O)/C=C/c1cccc(N(Cc2ccc(-c3ccccc3O)cc2)C(=O)C2CCCCC2)c1 [compound 56, (E)-Methyl 3-(3-(N-((2′-hydroxy-[1,1′-biphenyl]-4-yl)methyl)cyclohexanecarboxamido)phenyl) acrylate] | ++ (‘++’ means Cmpd/Fex > 10 & < 100) | 1000 to 10000 |
| COC(=O)/C=C/c1cccc(N(Cc2ccc(-c3ccc(N(C)C)cc3)cc2)C(=O)CC(C)(C)C)c1 [compound 7, (E)-Methyl 3-(3-(N-((4′-(dimethylamino)-[1,1′-biphenyl]-4-yl)methyl)-3,3-dimethylbutanamido)phenyl)acrylate] | +++ (‘+++’ means Cmpd/Fex < 10) | ≤ 1000 |
| COC(=O)/C=C/c1cccc(N(Cc2ccc(-c3ccc(N(C)C)cc3)cc2)C(=O)C2CCOCC2)c1 [compound 5, (E)-Methyl 3-(3-(N-((4′-(dimethylamino)-[1,1′-biphenyl]-4-yl)methyl)tetrahydro-2H-pyran-4-carboxamido)phenyl)acrylate] | +++ (‘+++’ means Cmpd/Fex < 10) | ≤ 1000 |
| COC(=O)/C=C/c1cccc(N(Cc2ccc(-c3cccc(C#N)c3)cc2)C(=O)C2CCCCC2)c1 [compound 24, (E)-Methyl 3-(3-(N-((3′-cyano-[1,1′-biphenyl]-4-yl)methyl)cyclohexanecarboxamido)phenyl)acrylate] | +++ (‘+++’ means Cmpd/Fex < 10) | ≤ 1000 |
| COC(=O)/C=C/c1cccc(N(Cc2ccc(-c3ccc(C(F)(F)F)cc3)cc2)C(=O)C2CCCCC2)c1 [compound 36, (E)-Methyl 3-(3-(N-((4′-(trifluoromethyl)-[1,1′-biphenyl]-4-yl)methyl)cyclohexanecarboxamido)phenyl)acrylate] | ++ (‘++’ means Cmpd/Fex > 10 & < 100) | 1000 to 10000 |
| COC(=O)/C=C/c1cccc(N(Cc2ccc(-c3ccc(N(C)C)c(OC)c3)cc2)C(=O)C2CCCCC2)c1 [compound 75, (E)-methyl 3-(3-(N-((4′-(dimethylamino)-3′-methoxy-[1,1′-biphenyl]-4-yl)methyl)cyclohexanecarboxamido)phenyl) acrylate] | ++ (‘++’ means Cmpd/Fex > 10 & < 100) | 1000 to 10000 |
| COC(=O)/C=C/c1cccc(N(Cc2ccc(-c3nccs3)cc2)C(=O)C2CCCCC2)c1 [compound 67, (E)-Methyl 3-(3-(N-(4-(thiazol-2-yl)benzyl)cyclohexanecarboxamido)phenyl) acrylate] | + (‘+’ means Cmpd/Fex > 100) | 1000 to 10000 |
| COC(=O)/C=C/c1cccc(N(Cc2ccc(-c3ccc(N(C)C)nc3)cc2)C(=O)C2CCCCC2)c1 [compound 38, (E)-Methyl 3-(3-(N-(4-(6-(dimethylamino)pyridin-3-yl)benzyl)cyclohexanecarboxamido)phenyl) acrylate] | +++ (‘+++’ means Cmpd/Fex < 10) | ≤ 1000 |
| COC(=O)/C=C/c1cccc(N(Cc2ccc(-c3ccc(OC)c(C)c3)cc2)C(=O)C2CCCCC2)c1 [compound 52, (E)-Methyl 3-(3-(N-((4′-methoxy-3′-methyl-[1,1′-biphenyl]-4-yl)methyl)cyclohexanecarboxamido)phenyl) acrylate] | +++ (‘+++’ means Cmpd/Fex < 10) | ≤ 1000 |
| COC(=O)/C=C/c1cccc(N(Cc2ccc(-c3ccc(N(C)C)cc3)cc2)C(=O)c2ccc(OC)cc2)c1 [compound 10, (E)-Methyl 3-(3-(N-((4′-(dimethylamino)-[1,1′-biphenyl]-4-yl)methyl)-4-methoxybenzamido)phenyl)acrylate] | +++ (‘+++’ means Cmpd/Fex < 10) | 1000 to 10000 |
| COC(=O)/C=C/c1cccc(N(Cc2ccc(-c3ccc(N(C)C)cc3)cc2)C(=O)C(C)(C)C)c1 [compound 1, (E)-Methyl 3-(3-(N-((4′-(dimethylamino)-[1,1′-biphenyl]-4-yl)methyl)pivalamido)phenyl)acrylate] | +++ (‘+++’ means Cmpd/Fex < 10) | 1000 to 10000 |
| COC(=O)C(C)Cc1cccc(N(Cc2ccc(-c3ccc(N(C)C)cc3)cc2)C(=O)C2CCCCC2)c1 (stereo not drawn) [compound 95, Methyl 3-(3-(N-((4′-(dimethylamino)-[1,1′-biphenyl]-4-yl)methyl)cyclohexanecarboxamido)phenyl)-2-methylpropanoate] | ++ (‘++’ means Cmpd/Fex > 10 & < 100) | 1000 to 10000 |
| COC(=O)/C=C/c1cccc(N(Cc2ccccc2-c2ccccc2)C(=O)C2CCCCC2)c1 [compound 81, (E)-Methyl 3-(3-(N-([1,1′-biphenyl]-2-ylmethyl)cyclohexanecarboxamido)phenyl) acrylate] | + (‘+’ means Cmpd/Fex > 100) | > 10000 |
| CN(C)c1ccc(-c2ccc(CN(c3cccc(/C=C/C(=O)O)c3)C(=O)[C@H]3CC[C@H](O)CC3)cc2)cc1 [compound 89, (E)-3-(3-((1s,4s)-N-((4′-(Dimethylamino)-[1,1′-biphenyl]-4-yl)methyl)-4-hydroxycyclohexane-carboxamido)phenyl) acrylic acid] | + (‘+’ means Cmpd/Fex > 100) | > 10000 |
| COC(=O)/C=C/c1cccc(N(Cc2ccc(-c3c(C)noc3C)cc2)C(=O)C2CCCCC2)c1 [compound 31, (E)-Methyl 3-(3-(N-(4-(3,5-dimethylisoxazol-4-yl)benzyl)cyclohexanecarboxamido)phenyl)acrylate] | + (‘+’ means Cmpd/Fex > 100) | 1000 to 10000 |
| COC(=O)/C=C/c1cccc(N(Cc2ccc(-c3ccc(N(C)C)cc3)cc2)C(=O)c2ccc(C#N)cc2)c1 [compound 4, (E)-Methyl 3-(3-(4-cyano-N-((4′-(dimethylamino)-[1,1′-biphenyl]-4-yl)methyl)benzamido)phenyl)acrylate] | +++ (‘+++’ means Cmpd/Fex < 10) | 1000 to 10000 |
| COC(=O)/C=C/c1cccc(N(Cc2ccc(-c3ccc(N(C)C)cc3)c(F)c2)C(=O)C2CCCCC2)c1 [compound 50, (E)-methyl 3-(3-(N-((4′-(dimethylamino)-2-fluoro-[1,1′-biphenyl]-4-yl)methyl)cyclohexanecarboxamido)phenyl) acrylate] | +++ (‘+++’ means Cmpd/Fex < 10) | ≤ 1000 |
